≈ marks a conversion by molar mass, not a printed value.
Tests used:
[1] = Antioxidant activity assessed as DPPH radical scavenging activity incubated under dark condition for 30 mins; assay type: functional
HCT-15 = assay: Cytotoxicity against human HCT15 cells assessed as reduction in cell viability after 24 hrs by MTT assay; assay type: functional, cell-based; conditions: HCT-15, 24 h

| Structure (SMILES) | IC50 [1] | IC50 (HCT-15) |
| --- | --- | --- |
| Cc1cccc2c3c([nH]c12)C1=C(C#N)C(=O)NC1(C1C(=O)c2cccc4cccc1c24)CC3 (configuration not stated) | > 100 µg/mL | 46.5 µM |
| Cc1ccc2[nH]c3c(c2c1)CCC1(C2c4ccccc4-c4nc5ccccc5nc42)NC(=O)C(C#N)=C31 (configuration not stated) | 42.31 µg/mL (≈ 88.2 µM) | 35.9 µM |
| Cc1cccc2c3c([nH]c12)C1=C(C#N)C(=O)NC1(C1c2ccccc2-c2nc4ccccc4nc21)CC3 (configuration not stated) | 33.936 µg/mL (≈ 70.8 µM) | 23.7 µM |
| Cc1ccc2c3c([nH]c2c1)C1=C(C#N)C(=O)NC1(C1C(=O)Nc2ccc(Cl)cc21)CC3 (configuration not stated) | 13.931 µg/mL (≈ 32.5 µM) | 15.8 µM |
| Cc1cccc2c3c([nH]c12)C1=C(C#N)C(=O)NC1(C1C(=O)Nc2ccccc21)CC3 (configuration not stated) | 28.918 µg/mL (≈ 73.3 µM) | 31.6 µM |
| Cc1ccc2[nH]c3c(c2c1)CCC1(C2C(=O)Nc4ccccc42)NC(=O)C(C#N)=C31 (configuration not stated) | 41.934 µg/mL (≈ 106 µM) | 47.4 µM |
| O=C1O[C@H]([C@@H](O)CO)C(O)=C1O [ASCORBIC ACID] | 13.228 µg/mL (≈ 75.1 µM) | – |
| Cc1ccc2c3c([nH]c2c1)C1=C(C#N)C(=O)NC1(C1C(=O)c2cccc4cccc1c24)CC3 (configuration not stated) | 28.251 µg/mL (≈ 65.8 µM) | 31.6 µM |
| Cc1ccc2c3c([nH]c2c1)C1=C(C#N)C(=O)NC1(C1c2ccccc2-c2nc4cc(C)c(C)cc4nc21)CC3 (configuration not stated) | 40.037 µg/mL (≈ 78.9 µM) | 50.2 µM |
